Experimental findings from EPA's ToxValDB 9.5 (doi:10.2903/j.efsa.2019.5732) are described below.

The test system of one data set is Apis mellifera. As to conditions: acute, mortality.
For a further data set, the system named is Bibionidae. As to conditions: chronic/long-term; duration: 28 days; seedling emergence.
In another data set the test system is Canidae. The following applies: chronic; duration: 1 years; oral; Dog Other; organ weight.
In the next data set the test system is Daphnia magna. The following applies: chronic/long-term; duration: 21 days; reproduction.
The next data set concerns Folsomia candida. As to conditions: chronic/long-term; mortality.
In another data set the test system is Mus musculus. The following applies: chronic; duration: 18 months; mortality.
The subject of the next data set is Oryctolagus sp. As to conditions: developmental; development.
The next data set relates to Pontoscolex corethrurus. The following applies: chronic/long-term; growth.

On to `CC(COc1ccc(Oc2ccccc2)cc1)Oc1ccccn1` (centres undefined) [Pyriproxyfen], for which the LD50 with Anas platyrhynchos (acute, oral, unspecified, mortality) is over 1910 mg/kg-day; in the data set with Apis mellifera (dermal), over 100 µg/piece; in the data set on Apis mellifera (oral, unspecified), 74 µg/piece; in the data set on Rattus norvegicus (acute, oral, mortality) it was over 5000 mg/kg-day. The NOEC was 70.2 mg/kg-day in the data set on Anas platyrhynchos (chronic/long-term); 3.1 µg/L in the data set with Bibionidae; 0.015 µg/L in the data set with Daphnia magna; 12.5 mg/kg in the data set with Folsomia candida; 50 mg/kg with Pontoscolex corethrurus. This compound came in with an LC50 in the data set on Anas platyrhynchos (short-term, oral, feed, mortality) of over 1260 mg/kg-day. Further, the NOAEL (as a rule, the highest dose or exposure tested at which no adverse effect was seen) stood at 10 mg/kg-day in the data set on Canidae; 100 mg/kg-day in the data set on Oryctolagus sp.; 13.3 mg/kg-day in the data set on Rattus norvegicus (reproduction developmental, organ weight). Further, the LOAEL (as a rule, the lowest dose or exposure tested at which an adverse effect was seen) in the data set with Mus musculus amounted to 16.4 mg/kg-day.
